Consider 40 molecules from patent US4983633A, “Amide compounds, process for preparing the same, and composition for activating gastric motor function containing the same” (Hokuriku Pharmaceutical Co., Ltd., priority 1987, dated 1991).

The test system of data set [1] is isolated guinea pig ileum. Briefly: Contractile effects of the test compounds in isolated guinea pig ileum. Further details: species or system guinea pig (male Hartley). The settings on record: for EC50: Cavia porcellus, isolated ileum strips, 37° C, relative to 10^-6 M acetylcholine-induced contraction, read-out: ED50 (dose which evoked 50% of the acetylcholine-induced contraction). The protocol: Contractile effects of the test compounds in isolated guinea pig ileum
Male Hartley guinea-pigs weighing about 450 g were sacrificed and the ileum was excised. Then intact strips 1.5-2.0 cm long were prepared. These preparations were suspended vertically in an organ bath filled with Krebs-Henseleit's solution at 37° C. which was gassed with 95% O2 and 5% CO2. Rhythmic contractions of the preparations were isotonically measured. Effects of the test compounds were assessed as the relative percentage of a test compound against 10^-6 M acetylcholine-induced contractions. Results were as follows (Table 1).
*The dose which evoked 50% of the acetylcholineinduced contraction.

The subject of data set [2] is apomorphine-induced emesis. Briefly: Suppressing effects on apomorphine-induced emesis in beagle dogs. The settings on record: apomorphine s.c., observed for sixty minutes. The class given is in vivo, beagle dogs (male). As for the experimental part:
Suppressing effects of the test compounds on apomorphine-induced emesis in beagle dogs
Male beagle dogs weighing about 8 kg were fasted overnight. The test compounds (suspended or dissolved in 0.5% CMC) were administered orally and the dogs fed fortyfive minutes later.

The subject of data set [3] is dopamine-induced suppression of gastrointestinal transit. Briefly: Improving effects on dopamine-induced suppression of gastrointestinal transit in mice (charcoal meal). The class given is in vivo, mice (male ddY). The settings on record: for improvement of gastrointestinal transit inhibited by dopamine (in words): 30 mg/kg p.o.; for Improvement (%) / Gastrointestinal transit (% ± S.E.): test compound 30 mg/kg p.o. + dopamine 2 mg/kg i.p.; for Gastrointestinal transit (% ± S.E.): 20 min after charcoal meal. The protocol:
Improving effects of the test compound on dopamine-induced suppression of gastrointestinal transit in mice
Male mice of the ddY strain weighing about 22 g were fasted overnight and the test compounds (suspended in 0.5% carboxymethylcellulose) were administered orally. Thirty minutes later dopamine (2 mg/kg dissolved in saline) or saline only was administered intraperitoneally followed immediately by the oral administration of charcoal meal (5% charcoal powder suspended in 10% gum arabic). Twenty minutes later the animals were sacrificed and the digestive tracts were isolated from the stomach to the cecum. The gastrointestinal transit was determined by calculating the total intestinal length between the pylorus and the cecum and the length over which charcoal meal was carried from the pylorus. Statistical analysis was carried out by Student's t-test for unpaired observations.

Data set [4] is described as follows: Acute toxicological study in mice (up and down method). The settings on record: mouse, in vivo; intravenous, male ICR mice aged 5 weeks. The protocol: Acute toxicological study in mice
Male ICR mice aged 5 weeks were used for each determination. The test compounds (2-4 different doses) were intravenously administered and LD50 values were calculated using the up and down method. Results were as follows (Table 3).

“And” between values parts separate entries of the source, which are not always exact repeats. Identical values can stand only once. Counter-ions that a name gives are not always drawn.

With `COc1ccc(S(N)(=O)=O)cc1C(=O)NCc1ccc(OCCN2CCCC2)cc1` [Compound 37], in data set [1], the EC50 turned out to be 180 nM. `CCN(CC)CCNC(=O)c1cc(Cl)c(N)cc1OC` [Metoclopramide HCl, 4-Amino-5-chloro-N-[(2-diethylamino)ethyl]-2-methoxybenzamide]: the antiemetic effect entry in data set [2] (1 mg/kg p.o.) was “significant antiemetic effect”. For the same molecule, in data set [1], the EC50 was 6300 nM. In addition, in data set [3], the “improvement of gastrointestinal transit inhibited by dopamine (in words)” value was “did not so only to a much lesser extent”, the “Improvement (%)” value is 27.1% and the “Gastrointestinal transit (% ± S.E.)” value came out at 37.2 ± 3.2%. For `COc1cc(C(=O)NCc2ccc(OCCN(C)C)cc2)cc(OC)c1OC` [Trimethobenzamide HCl, N-[4-[2-(dimethylamino)ethoxy]benzyl]-3,4,5-trimethoxybenzamide], the antiemetic effect result in data set [2] (30 mg/kg p.o.) is “significant antiemetic effect”. In addition, the EC50 in data set [1] turned out to be 1500 nM. For the same molecule, in data set [3], the “improvement of gastrointestinal transit inhibited by dopamine (in words)” value is “did not so only to a much lesser extent”, the “Improvement (%)” value came out at 32.4% and the “Gastrointestinal transit (% ± S.E.)” value was found to be 38.2 ± 3.8%. Turning to `Cc1cc(C(=O)NCc2ccc(OCCN3CCCC3)cc2)ccc1[N+](=O)[O-]` [Compound 63], the EC50 in data set [1] came out at 500 nM. Still for that read-out and setting: the value for `CN(C)S(=O)(=O)c1cc(C(=O)NCc2ccc(OCCN3CCCC3)cc2)ccc1Cl` [Compound 40] was 600 nM. The same measure, in the same setting: the value for `N#Cc1ccc(C(=O)NCc2ccc(OCCN3CCCC3)cc2)cc1` [Compound 57] was 930 nM; that for `CN(C)CCOc1ccc(CNC(=O)c2ccc(Cl)c(S(=O)(=O)N(C)C)c2)cc1` [Compound 39] was 390 nM. `Cc1cccc(C(=O)NCc2ccc(OCCN(C)C)cc2)c1` [Compound 47] showed a 50% lethal dose (LD50) in data set [4] of 68.5 mg/kg. In addition, the EC50 in data set [1] turned out to be 3000 nM.

As to `CN(C)CCOc1ccc(CNC(=O)c2ccc(C#N)cc2)cc1` [Compound 53], the LD50 in data set [4] was 77.6 mg/kg. In addition, in data set [1], the EC50 turned out to be 460 nM. In data set [4], `COc1cc(N)c(Cl)cc1C(=O)NCc1ccc(OCCN2CCCC2)cc1` [Compound 34, 4-amino-5-chloro-2-methoxy-N-[4-[2-(1-pyrrolidinyl)ethoxy]benzyl] benzamide] gave an LD50 of 44.7 mg/kg. Also, the EC50 in data set [1] stood at 120 nM. Also, in data set [3], the “Improvement (%)” value worked out at 63.4% and the “Gastrointestinal transit (% ± S.E.)” value was 46.6 ± 3.4%. In data set [4], `COc1cccc(C(=O)NCc2ccc(OCCN(C)C)cc2)c1` [Compound 23] registered an LD50 of 74.1 mg/kg. The EC50 in data set [1] was 300 nM. With `CNS(=O)(=O)c1ccc(OC)c(C(=O)NCc2ccc(OCCN3CCCC3)cc2)c1` [Compound 43], the EC50 in data set [1] was under 100 nM. The same measure, in the same setting: the result for `O=C(NCc1ccc(OCCN2CCCC2)cc1)c1cccc([N+](=O)[O-])c1` [Compound 58] reads 420 nM. Regarding `CN(C)CCOc1ccc(CNC(=O)c2ccc(N(C)C)cc2)cc1` [Compound 55], the EC50 in data set [1] was found to be 1300 nM.

`COc1cc(N)c(Cl)cc1C(=O)NCc1ccc(OCCN2CCCCC2)cc1` [Compound 35]: the LD50 in data set [4] came to 61.7 mg/kg. Further, the EC50 in data set [1] worked out at 490 nM. Taken in the same sequence, the figures for `CCOc1ccc(C(=O)NCc2ccc(OCCN(C)C)cc2)cc1` [Compound 25] were 87.1 mg/kg and 680 nM. As to `NCCc1ccc(O)c(O)c1` [Dopamine, dopamine], the “Gastrointestinal transit (% ± S.E.), dopamine alone” value in data set [3] (dopamine alone 2 mg/kg i.p., no test compound (model control group)) is 25.0 ± 3.4% and 35.9 ± 2.1% and 32.9 ± 3.1% and 32.1 ± 2.0% and 31.7 ± 3.2%.

In the case of `COc1ccc(S(N)(=O)=O)cc1C(=O)NCc1ccc(OCCN2CCCCC2)cc1` [Compound 38], the EC50 in data set [1] was determined as 350 nM.

Take `CN(C)CCOc1ccc(CNC(=O)c2ccc(S(N)(=O)=O)cc2)cc1` [Compound 8, N-[4-[2-(Dimethylamino)ethoxy]benzyl]-4-sulfamoylbenzamide]: the LD50 in data set [4] amounted to 85.1 mg/kg. Further, the EC50 in data set [1] is 1600 nM. In turn, `CN(C)CCOc1ccc(CNC(=O)c2cccc([N+](=O)[O-])c2)cc1` [Compound 51] registered an LD50 in data set [4] of 85.9 mg/kg. The EC50 in data set [1] was 610 nM. Regarding `Cc1ccc(C(=O)NCc2ccc(OCCN3CCCC3)cc2)cc1` [Compound 56], in data set [1], the EC50 is 320 nM. Same read-out and setting: the value for `CNS(=O)(=O)c1ccc(OC)c(C(=O)NCc2ccc(OCCN(C)C)cc2)c1` [Compound 36] was 340 nM. Take `CN(C)CCOc1ccc(CNC(=O)c2ccccc2)cc1` [Compound 20]: the EC50 in data set [1] was determined as 500 nM. Same read-out and setting: the result for `CN(C)CCOc1ccc(CNC(=O)c2cccc(Cl)c2)cc1` [Compound 45] reads 4600 nM. For the molecule `COc1ccc(C(=O)NCc2ccc(OCCN3CCCC3)cc2)cc1OC` [Compound 18, 3,4-Dimethoxy-N-[4-[2-(1-pyrrolidinyl)ethoxy]benzyl]benzamide], in data set [3], the “Improvement (%)” value worked out at 71.7% and the “Gastrointestinal transit (% ± S.E.)” value worked out at 43.0 ± 6.5%. The molecule `COc1ccc(C(=O)NCc2ccc(OCCN3CCCCC3)cc2)cc1OC` [Compound 19] came in with an LD50 in data set [4] of 70.8 mg/kg. Besides, the EC50 in data set [1] was 420 nM.

Take `COc1ccc(C(=O)NCc2ccc(OCCN(C)C)cc2)cc1OC.Cl` [Compound 2, N-[4-[2-(Dimethylamino)ethoxy]benzyl]-3,4-dimethoxybenzamide hydrochloride]: the antiemetic effect result in data set [2] (30 mg/kg p.o.) is recorded as “slight antiemetic effect”. This molecule yielded a median lethal dose (LD50) in data set [4] of 191 mg/kg. Further, the EC50 in data set [1] stood at 600 nM. The “times stronger contractile effect than metoclopramide.HCl” value in data set [1] (isolated guinea pig ileum, compared with metoclopramide.HCl) is listed as “about 10 times”. Also, the “times stronger contractile effect than trimethobenzamide.HCl” value in data set [1] (isolated guinea pig ileum, compared with trimethobenzamide.HCl) is given as “about 2.5 times”. In data set [3], the “Improvement (%)” value was found to be 56.5% and the “Gastrointestinal transit (% ± S.E.)” value is given as 43.9 ± 2.8%. `Cc1ccc(C(=O)NCc2ccc(OCCN(C)C)cc2)cc1` [Compound 48] showed a 50% lethal dose (LD50) in data set [4] of 83.2 mg/kg. In data set [1], the EC50 was 510 nM. The molecule `COc1ccc(S(N)(=O)=O)cc1C(=O)NCc1ccc(OCCN(C)C)cc1` [Compound 6, N-[4-[2-(Dimethylamino)ethoxy]benzyl]-2-methoxy-5-sulfamoylbenzamide] returned an LD50 in data set [4] of 39.2 mg/kg. The EC50 in data set [1] came out at 400 nM. In the case of `COc1ccc(C(=O)NCc2ccc(OCCN(C)C)cc2)cc1` [Compound 24], the EC50 in data set [1] is 610 nM. As for `CN(C)CCOc1ccc(CNC(=O)c2ccc(Cl)cc2Cl)cc1` [Compound 59], in data set [1], the EC50 turned out to be 620 nM. The molecule `CCOc1ccc(C(=O)NCc2ccc(OCCN(C)C)cc2)cc1OCC` [Compound 32] displayed an LD50 in data set [4] of 112 mg/kg. Also, the EC50 in data set [1] is 140 nM. Turning to `CN(C)CCOc1ccc(CNC(=O)c2ccc([N+](=O)[O-])cc2)cc1` [Compound 52], the EC50 in data set [1] stood at 450 nM.

As to `O=C(NCc1ccc(OCCN2CCCC2)cc1)c1ccc2c(c1)OCO2` [Compound 3, 3,4-Methylenedioxy-N-[4-[2-(1-pyrrolidinyl)ethoxy]benzyl]benzamide], the LD50 in data set [4] turned out to be 62.6 mg/kg. In addition, in data set [1], the EC50 was found to be 460 nM. Moreover, in data set [3], the “Improvement (%)” value was 56.9% and the “Gastrointestinal transit (% ± S.E.)” value was 44.0 ± 4.7%.

Consider `Cc1cc(C(=O)NCc2ccc(OCCN(C)C)cc2)ccc1[N+](=O)[O-]` [Compound 62], for which the EC50 in data set [1] stood at 390 nM. Molecule `COc1cc(N)c(Cl)cc1C(=O)NCc1ccc(OCCN(C)C)cc1` [Compound 5, 4-Amino-5-chloro-N-[4-[2-(dimethylamino)ethoxy]benzyl]-2-methoxybenzamide] gave an LD50 in data set [4] of 94 mg/kg. In addition, in data set [1], the EC50 came out at 180 nM. The molecule `CCOc1ccc(C(=O)NCc2ccc(OCCN(C)C)cc2)cc1OC` [Compound 31, N-[4-[2-(dimethylamino)ethoxy]benzyl]-4-ethoxy-3-methoxybenzamide] returned a 50% lethal dose (LD50) in data set [4] of 105 mg/kg. Moreover, in data set [1], the EC50 is 420 nM. Moreover, in data set [3], the “Improvement (%)” value came out at 58.5% and the “Gastrointestinal transit (% ± S.E.)” value is given as 45.2 ± 3.0%. As to `COc1cc(N)c(S(N)(=O)=O)cc1C(=O)NCc1ccc(OCCN(C)C)cc1` [Compound 41], in data set [1], the EC50 came to 130 nM. Same read-out and setting: the value for `COc1ccc(S(=O)(=O)N(C)C)cc1C(=O)NCc1ccc(OCCN(C)C)cc1` [Compound 7, N-[4-[2-(Dimethylamino)ethoxy]benzyl]-5-dimethylaminosulfonyl 2-methoxybenzamide] was 300 nM; that for `COc1cc(OC)cc(C(=O)NCc2ccc(OCCN(C)C)cc2)c1` [Compound 14] was 690 nM.
